# Test results taken from ChEMBL document CHEMBL3885881, “DrugMatrix”.
# Species: Rattus norvegicus
# Experiment: DrugMatrix - Regimen: Daily Repeat
# Type: toxicity, organism-based, Sprague-Dawley
# Parameters: regimen Daily Repeat, gender Male, age 6-8 weeks
# Settings: in vivo, po, route oral GAVAGE, […]; for ABSOLUTE BASOPHIL / ABSOLUTE EOSINOPHIL / ABSOLUTE LYMPHOCYTE / ABSOLUTE MONOCYTE / ABSOLUTE SEGMENTED NEUTROPHIL / BASOPHIL / EOSINOPHIL / ERYTHROCYTE COUNT / HEMATOCRIT / HEMOGLOBIN / LEUKOCYTE COUNT / LYMPHOCYTE / MEAN CORPUSCULAR HEMOGLOBIN / MEAN CORPUSCULAR HEMOGLOBIN CONCENTRATION / MEAN CORPUSCULAR VOLUME / MONOCYTE / NEUTROPHIL / NUCLEATED RED BLOOD CELLS / PLATELET COUNT: tissue Blood; for ALANINE AMINOTRANSFERASE / ALBUMIN / ALKALINE PHOSPHATASE / ASPARTATE AMINOTRANSFERASE / BLOOD UREA NITROGEN / CARBON DIOXIDE / CHLORIDE / CHOLESTEROL / CREATINE PHOSPHOKINASE / CREATININE / GLUCOSE / LACTATE DEHYDROGENASE / LIPASE / PHOSPHORUS / POTASSIUM / SODIUM / TOTAL BILIRUBIN / TOTAL PROTEIN / URIC ACID: tissue Plasma
# [1] = 10 mg/kg, 72 h, dose level Low, time 3 day
# [2] = 10 mg/kg, 120 h, dose level Low, time 5 day
# [3] = 1200 mg/kg, 72 h, dose level High, time 3 day
# [4] = 1200 mg/kg, 120 h, dose level High, time 5 day
smiles,measurement,setting,value
COC(=O)Nc1nc2cc(C(=O)c3ccc(F)cc3)ccc2[nH]1 [FLUBENDAZOLE],ABSOLUTE BASOPHIL,[1],0 CELLS/uL
same,ABSOLUTE EOSINOPHIL,[1],47.67 CELLS/uL
same,ABSOLUTE LYMPHOCYTE,[1],13609.33 CELLS/uL
same,ABSOLUTE MONOCYTE,[1],47.67 CELLS/uL
same,ABSOLUTE SEGMENTED NEUTROPHIL,[1],1162 CELLS/uL
same,BASOPHIL,[1],0%
same,EOSINOPHIL,[1],0.33%
same,ERYTHROCYTE COUNT,[1],5.56 x10E6/uL
same,HEMATOCRIT,[1],35.83%
same,HEMOGLOBIN,[1],14.1 G/DL
same,LEUKOCYTE COUNT,[1],14.87 x10E3/uL
same,LYMPHOCYTE,[1],91.33%
same,MEAN CORPUSCULAR HEMOGLOBIN,[1],25.37 pg
same,MEAN CORPUSCULAR HEMOGLOBIN CONCENTRATION,[1],39.33 G/DL
same,MEAN CORPUSCULAR VOLUME,[1],64.4 fL
same,MONOCYTE,[1],0.33%
same,NEUTROPHIL,[1],8%
same,NUCLEATED RED BLOOD CELLS,[1],0 /100WBC
same,PLATELET COUNT,[1],1248.33 x10E3/uL
same,ALANINE AMINOTRANSFERASE,[1],66.33 u/L
same,ALBUMIN,[1],4.3 G/DL
same,ALKALINE PHOSPHATASE,[1],384.67 u/L
same,ASPARTATE AMINOTRANSFERASE,[1],89 u/L
same,BLOOD UREA NITROGEN,[1],14.67 mg/dL
same,CARBON DIOXIDE,[1],28.67 mmol/L
same,CHLORIDE,[1],103.67 MEQ/L
same,CHOLESTEROL,[1],73 mg/dL
same,CREATINE PHOSPHOKINASE,[1],180.67 u/L
same,CREATININE,[1],0.2 mg/dL
same,GLUCOSE,[1],149.33 mg/dL
same,LACTATE DEHYDROGENASE,[1],206 u/L
same,LIPASE,[1],10.67 u/L
same,PHOSPHORUS,[1],13.07 mg/dL
same,POTASSIUM,[1],6.75 MEQ/L
same,SODIUM,[1],148 MEQ/L
same,TOTAL BILIRUBIN,[1],0.17 mg/dL
same,TOTAL PROTEIN,[1],5.6 G/DL
same,URIC ACID,[1],2.37 mg/dL
same,ABSOLUTE BASOPHIL,[2],0 CELLS/uL
same,ABSOLUTE EOSINOPHIL,[2],0 CELLS/uL
same,ABSOLUTE LYMPHOCYTE,[2],11922.67 CELLS/uL
same,ABSOLUTE MONOCYTE,[2],87 CELLS/uL
same,ABSOLUTE SEGMENTED NEUTROPHIL,[2],723.67 CELLS/uL
same,BASOPHIL,[2],0%
same,EOSINOPHIL,[2],0%
same,ERYTHROCYTE COUNT,[2],5.65 x10E6/uL
same,HEMATOCRIT,[2],34.27%
same,HEMOGLOBIN,[2],13.7 G/DL
same,LEUKOCYTE COUNT,[2],12.73 x10E3/uL
same,LYMPHOCYTE,[2],93.67%
same,MEAN CORPUSCULAR HEMOGLOBIN,[2],24.3 pg
same,MEAN CORPUSCULAR HEMOGLOBIN CONCENTRATION,[2],40.03 G/DL
same,MEAN CORPUSCULAR VOLUME,[2],60.63 fL
same,MONOCYTE,[2],0.67%
same,NEUTROPHIL,[2],5.67%
same,NUCLEATED RED BLOOD CELLS,[2],0.33 /100WBC
same,PLATELET COUNT,[2],1117 x10E3/uL
same,ALANINE AMINOTRANSFERASE,[2],57.33 u/L
same,ALBUMIN,[2],4.23 G/DL
same,ALKALINE PHOSPHATASE,[2],373.33 u/L
same,ASPARTATE AMINOTRANSFERASE,[2],85.33 u/L
same,BLOOD UREA NITROGEN,[2],15.67 mg/dL
same,CARBON DIOXIDE,[2],23.33 mmol/L
same,CHLORIDE,[2],105 MEQ/L
same,CHOLESTEROL,[2],58.67 mg/dL
same,CREATINE PHOSPHOKINASE,[2],240.33 u/L
same,CREATININE,[2],0.22 mg/dL
same,GLUCOSE,[2],160.33 mg/dL
same,LACTATE DEHYDROGENASE,[2],156.67 u/L
same,LIPASE,[2],9.33 u/L
same,PHOSPHORUS,[2],12.1 mg/dL
same,POTASSIUM,[2],7.18 MEQ/L
same,SODIUM,[2],146.47 MEQ/L
same,TOTAL BILIRUBIN,[2],0.2 mg/dL
same,TOTAL PROTEIN,[2],5.97 G/DL
same,URIC ACID,[2],1.9 mg/dL
same,ABSOLUTE BASOPHIL,[3],0 CELLS/uL
same,ABSOLUTE EOSINOPHIL,[3],0 CELLS/uL
same,ABSOLUTE LYMPHOCYTE,[3],12475.33 CELLS/uL
same,ABSOLUTE MONOCYTE,[3],43.67 CELLS/uL
same,ABSOLUTE SEGMENTED NEUTROPHIL,[3],1014.33 CELLS/uL
same,BASOPHIL,[3],0%
same,EOSINOPHIL,[3],0%
same,ERYTHROCYTE COUNT,[3],5.28 x10E6/uL
same,HEMATOCRIT,[3],33.83%
same,HEMOGLOBIN,[3],13.6 G/DL
same,LEUKOCYTE COUNT,[3],13.53 x10E3/uL
same,LYMPHOCYTE,[3],92%
same,MEAN CORPUSCULAR HEMOGLOBIN,[3],25.87 pg
same,MEAN CORPUSCULAR HEMOGLOBIN CONCENTRATION,[3],40.23 G/DL
same,MEAN CORPUSCULAR VOLUME,[3],64.27 fL
same,MONOCYTE,[3],0.33%
same,NEUTROPHIL,[3],7.67%
same,NUCLEATED RED BLOOD CELLS,[3],0.33 /100WBC
same,PLATELET COUNT,[3],1168 x10E3/uL
same,ALANINE AMINOTRANSFERASE,[3],71.67 u/L
same,ALBUMIN,[3],4.33 G/DL
same,ALKALINE PHOSPHATASE,[3],451.33 u/L
same,ASPARTATE AMINOTRANSFERASE,[3],104.67 u/L
same,BLOOD UREA NITROGEN,[3],12 mg/dL
same,CARBON DIOXIDE,[3],29.33 mmol/L
same,CHLORIDE,[3],100.67 MEQ/L
same,CHOLESTEROL,[3],60.33 mg/dL
same,CREATINE PHOSPHOKINASE,[3],400 u/L
same,CREATININE,[3],0.19 mg/dL
same,GLUCOSE,[3],163.67 mg/dL
same,LACTATE DEHYDROGENASE,[3],208.67 u/L
same,LIPASE,[3],9.67 u/L
same,PHOSPHORUS,[3],12.3 mg/dL
same,POTASSIUM,[3],6.63 MEQ/L
same,SODIUM,[3],146.5 MEQ/L
same,TOTAL BILIRUBIN,[3],0.17 mg/dL
same,TOTAL PROTEIN,[3],5.7 G/DL
same,URIC ACID,[3],1.9 mg/dL
same,ABSOLUTE BASOPHIL,[4],0 CELLS/uL
same,ABSOLUTE EOSINOPHIL,[4],0 CELLS/uL
same,ABSOLUTE LYMPHOCYTE,[4],14800.33 CELLS/uL
same,ABSOLUTE MONOCYTE,[4],0 CELLS/uL
same,ABSOLUTE SEGMENTED NEUTROPHIL,[4],966.33 CELLS/uL
same,BASOPHIL,[4],0%
same,EOSINOPHIL,[4],0%
same,ERYTHROCYTE COUNT,[4],5.99 x10E6/uL
same,HEMATOCRIT,[4],36.1%
same,HEMOGLOBIN,[4],14.47 G/DL
same,LEUKOCYTE COUNT,[4],15.77 x10E3/uL
same,LYMPHOCYTE,[4],93.67%
same,MEAN CORPUSCULAR HEMOGLOBIN,[4],24.2 pg
same,MEAN CORPUSCULAR HEMOGLOBIN CONCENTRATION,[4],40.07 G/DL
same,MEAN CORPUSCULAR VOLUME,[4],60.33 fL
same,MONOCYTE,[4],0%
same,NEUTROPHIL,[4],6.33%
same,NUCLEATED RED BLOOD CELLS,[4],0 /100WBC
same,PLATELET COUNT,[4],1290.67 x10E3/uL
same,ALANINE AMINOTRANSFERASE,[4],58.33 u/L
same,ALBUMIN,[4],4.4 G/DL
same,ALKALINE PHOSPHATASE,[4],432 u/L
same,ASPARTATE AMINOTRANSFERASE,[4],93.33 u/L
same,BLOOD UREA NITROGEN,[4],12.33 mg/dL
same,CARBON DIOXIDE,[4],21.67 mmol/L
same,CHLORIDE,[4],103.33 MEQ/L
same,CHOLESTEROL,[4],77.67 mg/dL
same,CREATINE PHOSPHOKINASE,[4],239.67 u/L
same,CREATININE,[4],0.28 mg/dL
same,GLUCOSE,[4],161 mg/dL
same,LACTATE DEHYDROGENASE,[4],157.67 u/L
same,LIPASE,[4],10 u/L
same,PHOSPHORUS,[4],11.27 mg/dL
same,POTASSIUM,[4],6.7 MEQ/L
same,SODIUM,[4],144.17 MEQ/L
same,TOTAL BILIRUBIN,[4],0.13 mg/dL
same,TOTAL PROTEIN,[4],6.23 G/DL
same,URIC ACID,[4],1.93 mg/dL
